Data published in patent publication US20090048160A1, “Antimicrobial activity of bovine bactericidal/permeability-increasing protein (BPI)-derived peptides against Gram-negative bacterial mastitis isolates” (priority 2007, published 2009).
Where two headings read alike, the source gives them in different places. Ends that are not written are not given here.

Key:
Type in all cases: cell-based
[1] = system: Enterobacter aerogenes
Text: Bacterial isolates of Escherichia coli, Klebsiella pneumonia, Serratia marcescens, Pseudomonas aeruginosa, Enterobacter cloacae, and Enterobacter aerogenes, which were obtained from clinical cases of bovine mastitis, were used to assess the bactericidal activity of peptides in a broth microdilution assay. Isolates were obtained from repositories at Cornell University (gift of Dr. Y. H. Schukken; Quality Milk Production Services Program, Cornell University, Ithaca N.Y.) and the USDA Beltsville Agricultural Research Center. […] A. J. Bramley, Institute for Animal Health, Compton Laboratory, Newbury, England), which was originally isolated from a clinical case of mastitis ([…]. Dairy Res. 43: 205-211) was also used to assess the bactericidal activity of the peptides in biological fluids. Reference strains of E. coli (ATCC 25922) and Staphylococcus aureus (ATCC 29213) were obtained from a commercial source (American Type Culture Collection (ATCC), Manassas, Va.). To obtain fresh inoculums for evaluation, a sterile loop of each bacterial glycerol stock was streaked on a blood agar plate. After an overnight incubation at 35° C., a single uniform colony was picked and sub-passaged by streaking on a new blood agar plate and incubating the plate overnight at 35° C. To evaluate the antimicrobial activity of the peptides against various clinical mastitis bacterial isolates, the minimum inhibitory concentration (MIC) and the minimum bactericidal concentration (MBC) of these peptides against the isolates were determined using a standardized broth microdilution assay. In addition to the mastitis isolates, E. coli (ATCC 25922) and S. aureus (ATCC 29213) reference strains were evaluated. […] The assays were performed in accordance with Clinical and Laboratory Standards Institute (CLSI) [formerly National Committee for Clinical Laboratory Standards (NCCLS)] guidelines (National Committee for Clinical Laboratory Standards. 1999. Methods for Determining Bacterial Activity of Antimicrobial Agents: Approved Guideline. Wayne, Pa.; National Committee for Clinical Laboratory Standards. 2002. Performance Standards for Antimicrobial Disk and Dilution Susceptibility Tests for Bacteria Isolated from Animals: Approved Standard. 2nd Edition, Wayne, Pa.). […] The bacterial suspension was then diluted 100-fold in cation-adjusted Mueller-Hinton broth to reach a final inoculum concentration of 10^6 CFU/ml. […] A negative control column was included in the plate that included 100 μl of broth alone. The plates were incubated for 18 h at 35° C. with ambient air circulation and without shaking. The wells were subsequently inspected for cloudiness and pellet formation using a magnifying glass plate reader. The lowest concentration at which no pellet or cloudiness was apparent in a given well was identified as the MIC. […] The plates were incubated overnight at 35° C. and colonies subsequently enumerated. The MBC values were determined as the lowest concentration at which ≧99.9% of inoculated bacteria were killed. All assays were performed in triplicate and the MIC and MBC range reported.

[2] = system: E. coli strain P4; assay: bactericidal activity in serum; settings: for Mean log10 colony forming units: serum, 6 hours at 37° C.
Experimental: (§1) Milk and blood samples were aseptically collected from 8 clinically healthy primiparous Holstein cows in mid-lactation with milk somatic cell counts of <150,000 cells/ml. All cows were determined to be free of intramammary pathogens by the absence of growth on blood agar plates spread with milk samples aseptically collected from each animal on 3 different days. For the preparation of whey, milk samples were centrifuged at 44,000×g at 4° C. for 30 min, and the fat layer removed with a spatula. The skim milk was transferred into another sterile tube, centrifuged for an additional 30 min, and the translucent supernatant collected. Milk and whey samples were pasteurized by heating at 63° C. for 30 min. For the preparation of serum, blood was collected from the coccygeal vein into vacutainer tubes containing gel and clot activator (BD Biosciences) for serum separation. The tubes were inverted ×5, the blood allowed to clot for 30 min, and the tubes centrifuged at 1500×g for 15 min. The clear serum supernatants were aseptically transferred into sterile tubes and heat-inactivated by incubating at 56° C. for 30 min. An aliquot of each sample was plated on blood agar plates and samples that were free of detectable bacterial growth were stored at −20° C.
(§2) Overnight bacterial cultures of E. coli strain P4 grown in trypticase soy broth were diluted 1:1,000 in brain heart infusion broth and incubated at 37° C. for 2 hours while shaking at 225 rpm. The log-phase bacteria were diluted 1:10 in brain heart infusion broth to obtain a final concentration of […]. 0.01 ml of the bacterial inoculum was added to a 1.5 ml sterile microcentrifuge tube containing 0.04 ml of serum, milk, or whey. A 0.05 ml aliquot of either peptide or CBS alone was added to each tube. The samples were then shaken at 100 rpm for 6 hours at 37° C. The sample mixtures were subsequently serially diluted in sterile phosphate-buffered saline and plated on MacConkey agar plates (BD Biosciences). The plates were incubated overnight at 37° C. and the colonies enumerated.
(§3) To determine whether bBPI142-169 and bBPI90-99,148-161 retained their bactericidal activity in physiological fluids, the peptides were incubated with E. coli strain P4 (1×10^5 CFU) in the presence of serum (Table 2) or milk (Table 3).

[3] = system: E. coli strain P4; settings: for Mean log10 colony forming units: milk, 6 hours at 37° C.
Experimental: as §1, §2, §3
(§4) However, bBPI90-99,148-161 was able to inhibit >99% of the growth of E. coli in milk. Because milk appeared to have an inhibitory effect on the bactericidal activity of bBPI90-99,148-161, the peptides were subsequently evaluated for their ability to retain activity in whey, which is the casein-depleted, protein-rich liquid fraction of milk (Table 4).

[4] = system: E. coli strain P4; assay: bactericidal activity in whey; settings: for concentrations at which bactericidal activity was displayed: in the presence of whey; for Mean log10 colony forming units: whey, 6 hours at 37° C.
Experimental: as §1, §2, §4

Question: Which MBC [1] does the source give for “VRIHISGSSLGWLIQLFRKRIESLLQKS [bBPI142-169]” here?
Answer: The MBC was greater than 256 µg/mL.

Question: What about the “Mean log10 colony forming units” value ([2]; peptide 0.1 μg/ml) of the same sequence?
Answer: Its value is 8.42 log10 colony forming units.

Question: And the “Mean log10 colony forming units” value ([2]; peptide 1 μg/ml)?
Answer: The value was 8.38 log10 colony forming units.

Question: What about the “Mean log10 colony forming units” value ([2]; peptide 10 μg/ml) of the same sequence?
Answer: The value was 8.29 log10 colony forming units.

Question: And the “Mean log10 colony forming units” value ([2]; peptide 100 μg/ml)?
Answer: Its value is 7.96 log10 colony forming units.

Question: And the “Mean log10 colony forming units” value ([3]; peptide 20 μg/ml)?
Answer: Its value is 8.67 log10 colony forming units.

Question: What about the “Mean log10 colony forming units” value ([3]; peptide 200 μg/ml) of the same sequence?
Answer: The value was 8.55 log10 colony forming units.

Question: What about the “Mean log10 colony forming units” value ([3]; peptide 2000 μg/ml) of the same sequence?
Answer: Its value is 7.99 log10 colony forming units.

Question: And the “concentrations at which bactericidal activity was displayed” value [4]?
Answer: Its value is “neither bBPI65-99 nor bBPI142-169 demonstrated bactericidal activity at any concentration tested”.

Question: And the “Mean log10 colony forming units” value ([4]; peptide 0.1 μg/ml)?
Answer: Its value is 8.29 log10 colony forming units.

Question: What about the “Mean log10 colony forming units” value ([4]; peptide 1 μg/ml) of the same sequence?
Answer: The value was 8.44 log10 colony forming units.

Question: And the “Mean log10 colony forming units” value ([4]; peptide 10 μg/ml)?
Answer: Its value is 8.10 log10 colony forming units.

Question: And the “Mean log10 colony forming units” value ([4]; peptide 100 μg/ml)?
Answer: Its value is 7.45 log10 colony forming units.

Question: For “KWKARKNFIKGSSLGWLIQLFRKR [bBPI90-99,148-161]”, which MBC [1] is on record?
Answer: Its MBC is 64 µg/mL.

Question: What about the MIC [1] of the same sequence?
Answer: The MIC was 64 µg/mL.

Question: What about the “concentrations at which bactericidal activity was demonstrated” value ([2]; in the presence of serum) of the same sequence?
Answer: The value was no less than 10 µg/mL.

Question: And the “Mean log10 colony forming units” value ([2]; peptide 0.1 μg/ml)?
Answer: The value was 8.25 log10 colony forming units.

Question: What about the “Mean log10 colony forming units” value ([2]; peptide 1 μg/ml) of the same sequence?
Answer: Its value is 8.15 log10 colony forming units.

Question: And the “Mean log10 colony forming units” value ([2]; peptide 10 μg/ml)?
Answer: Its value is 0 log10 colony forming units.

Question: What about the “Mean log10 colony forming units” value ([2]; peptide 100 μg/ml) of the same sequence?
Answer: The value was 0 log10 colony forming units.

Question: What about the “Mean log10 colony forming units” value ([3]; peptide 20 μg/ml) of the same sequence?
Answer: The value was 8.65 log10 colony forming units.

Question: What about the “Mean log10 colony forming units” value ([3]; peptide 200 μg/ml) of the same sequence?
Answer: The value was 7.89 log10 colony forming units.

Question: What about the “Mean log10 colony forming units” value ([3]; peptide 2000 μg/ml) of the same sequence?
Answer: The value was 6.55 log10 colony forming units.

Question: What about the “inhibition of the growth of E. coli” value ([3]; strain P4, 2 mg/ml) of the same sequence?
Answer: Its value is greater than 99%.

Question: What about the “concentrations at which bactericidal activity was displayed” value [4] of the same sequence?
Answer: Its value is no less than 10 µg/mL.

Question: What about the “Mean log10 colony forming units” value ([4]; peptide 0.1 μg/ml) of the same sequence?
Answer: The value was 8.17 log10 colony forming units.

Question: And the “Mean log10 colony forming units” value ([4]; peptide 1 μg/ml)?
Answer: The value was 7.97 log10 colony forming units.

Question: And the “Mean log10 colony forming units” value ([4]; peptide 10 μg/ml)?
Answer: Its value is 0 log10 colony forming units.

Question: And the “Mean log10 colony forming units” value ([4]; peptide 100 μg/ml)?
Answer: Its value is 0 log10 colony forming units.

Question: “NSQIRPLPDKGLDLSIRDASIKIRGKWKARKNFIK [bBPI65-99]” was tested. Which MBC [1] did it give?
Answer: Its MBC is greater than 256 µg/mL.

Question: What about the MIC [1] of the same sequence?
Answer: Its MIC is greater than 256 µg/mL.

Question: And the “Mean log10 colony forming units” value ([2]; peptide 0.1 μg/ml)?
Answer: Its value is 8.27 log10 colony forming units.

Question: And the “Mean log10 colony forming units” value ([2]; peptide 1 μg/ml)?
Answer: Its value is 8.28 log10 colony forming units.

Question: What about the “Mean log10 colony forming units” value ([2]; peptide 10 μg/ml) of the same sequence?
Answer: The value was 8.23 log10 colony forming units.

Question: What about the “Mean log10 colony forming units” value ([2]; peptide 100 μg/ml) of the same sequence?
Answer: Its value is 8.07 log10 colony forming units.

Question: And the “Mean log10 colony forming units” value ([3]; peptide 20 μg/ml)?
Answer: The value was 8.69 log10 colony forming units.

Question: And the “Mean log10 colony forming units” value ([3]; peptide 200 μg/ml)?
Answer: The value was 8.54 log10 colony forming units.

Question: What about the “Mean log10 colony forming units” value ([3]; peptide 2000 μg/ml) of the same sequence?
Answer: Its value is 8.06 log10 colony forming units.

Question: What about the “concentrations at which bactericidal activity was displayed” value [4] of the same sequence?
Answer: The value was “neither bBPI65-99 nor bBPI142-169 demonstrated bactericidal activity at any concentration tested”.

Question: And the “Mean log10 colony forming units” value ([4]; peptide 0.1 μg/ml)?
Answer: The value was 8.47 log10 colony forming units.

Question: And the “Mean log10 colony forming units” value ([4]; peptide 1 μg/ml)?
Answer: The value was 8.26 log10 colony forming units.

Question: And the “Mean log10 colony forming units” value ([4]; peptide 10 μg/ml)?
Answer: Its value is 8.16 log10 colony forming units.

Question: What about the “Mean log10 colony forming units” value ([4]; peptide 100 μg/ml) of the same sequence?
Answer: The value was 7.36 log10 colony forming units.
